Values quoted from earlier work, collected in patent publication US11712474B2, “Reduction of post-surgery cancer metastasis by combination of cannabidiol and NR2F6 inhibition” (priority 2019, dated 2023).
Like-named read-outs stand apart in the source and are kept apart here.

Tests used:
[1] = tested on: NOD mice
[2] = tested on: mitogen-activated human peripheral blood mononuclear cells (PBMC)
[3] = cells of CBD-treated mice vs untreated control mice

C=C(C)[C@@H]1CCC(C)=C[C@H]1c1c(O)cc(CCCCC)cc1O [CBD, cannabidiol]
insulitis, histological examination of pancreatic islets ([1]; CBD-treated NOD mice): significantly reduced
plasma levels of pro-inflammatory cytokines IFN-gamma and TNF-alpha ([1]; CBD-treated NOD mice): significant reduction
incidence of diabetes ([1]; CBD-treated NOD mice, 86% in non-treated control mice): 30%
Th1-associated cytokine production of in vitro activated T-cells and peritoneal macrophages [1, 3]: significantly reduced
production of Th2-associated cytokines IL-4 and IL-10 [1, 3]: increased
IL-2 secretion [2]: no effect
increase of the concentration of measurable IFN [2]: 68%
measurable quantity of IL-1 [2]: decrease
measurable quantity of TNF [2]: decrease
synthesis and/or release of IFN ([2]; high concentrations, 5-20 micrograms/ml): completely blocked

CCCCCc1cc(O)c2c(c1)OC(C)(C)[C@@H]1CCC(C)=C[C@@H]21 [THC, delta-9-tetrahydrocannabinol]
IL-2 secretion [2]: no effect
increase of the concentration of measurable IFN [2]: 139%
synthesis and/or release of IFN [2]: completely blocked
